Experimental data published in patent US9381186B2, “Substituted chroman derivatives, medicaments and use in therapy” (MEI Pharma, Inc., priority 2004, dated 2016).
Values after ≈ are worked out from the molar mass of the structure shown. Where two headings read alike, the source gives them in different places.

Columns and labels:
[1] = tested on: HT-29; assay: MTT proliferation assay, colorectal HT-29; format: cell-based; details: for IC50: Homo sapiens
Procedure: (§1) An cultures were supplemented with 10% FCS (CSL, Australia), penicillin (100 U/ml), streptomycin ([…]), L-glutamine (2 mM) and sodium bicarbonate (1.2 g/L), and cultured at 37° C. in a humidified atmosphere of 5% CO2. All cell lines were purchased from ATCC (Maryland, USA) except where noted.
(§2) IC50 values were determined for each cell line. Cells were seeded in 96-well plates at an appropriate cell density as determined from growth kinetics analysis and cultured for 5 days in the absence and presence of the test compounds. Cell proliferation was assessed after the addition of 20 μl of 3-4,5 dimethylthiazol-2,5-diphenyl tetrazolium bromide (MTT, 2.5 mg/ml in PBS, Sigma) for 3-4 hrs at 37° C. according to manufacturer's instructions. IC50 values were calculated from semi-log plots of % of control proliferation on the y-axis against log dose on the x-axis.

[2] = Preliminary formulation study, solubility in 20% HPBCD; format: physicochemical; details: aqueous with cosolvent or surfactant or cyclodextrin, preliminary formulation studies
[3] = tested on: HPAC; assay: MTT proliferation assay, pancreatic HPAC; format: cell-based; details: Homo sapiens, Table 2.2
[4] = tested on: cancer cell lines; assay: Proliferation assays, panel of cancer cell lines; format: cell-based; details: CP70, PC3, MDA-MB-468, HTB-138 and lung cancer cell lines
[5] = tested on: NCI-H460; assay: MTT proliferation assay, NSC lung NCI-H460; format: cell-based; details: Homo sapiens; NSC Lung NCI-H460, Table 2.2
Procedure: as §1, §2

[6] = tested on: NFF (neonatal foreskin fibroblasts); assay: Cytotoxicity (MTT proliferation assay) against neonatal foreskin fibroblasts; format: cell-based, Human; details: Homo sapiens, Fibroblast
Procedure: (§3) The normal cell line NFF (neonatal foreskin fibroblasts) was a gift from Dr. Peter Parsons (Queensland Institute of Medical Research). RK (rabbit kidney) cells were obtained from Miller Whalley (Macquarie University). Both cell lines were cultured in RPMI supplemented with 10% FCS (CSL, Australia), penicillin (100 U/ml), streptomycin ([…]), L-glutamine (2 mM) and sodium bicarbonate (1.2 g/L), and cultured at 37° C. in a humidified atmosphere of 5% CO2
as §2

[7] = tested on: HTB-138; assay: MTT proliferation assay, glioma HTB-138; format: cell-based
Procedure: as §1, §2

[8] = tested on: PC3; assay: MTT proliferation assay, prostate PC3; format: cell-based; details: Homo sapiens, PC-3
Procedure: as §1, §2

[9] = tested on: MM200; assay: MTT proliferation assay, melanoma MM200; format: cell-based
[10] = tested on: CP70; assay: MTT proliferation assay, ovarian CP70; format: cell-based
[11] = Oral pharmacokinetics in female BALB/c mice; format: in vivo, mouse
Procedure: Compound No. 1 labelled above was prepared as homogenous suspensions in 1% CMC (m:v, water). The formulation was delivered orally by gavage to female BALB/c mice at a dosage of 50 mg/kg. Three animals were allocated to each timepoint (15 min, 30 min, 1 hr, 4 hr and 24 hr). At each respective timepoint, animals were euthanised by cervical dislocation and blood collected. The concentration of free compound was analysed by mass spectroscopy.

[12] = tested on: CCRF-CEM; assay: MTT proliferation assay, leukaemia (ALL) CCRF-CEM; format: cell-based; details: Homo sapiens, Table 2.2
Procedure: as §1, §2

[13] = tested on: MDA-MB-468; assay: MTT proliferation assay, breast MDA-MB-468; format: cell-based; details: Homo sapiens
[14] = tested on: murine macrophages (RAW 264.7) stimulated with LPS; assay: Eicosanoid synthesis in LPS-stimulated RAW 264.7 macrophages; format: cell-based, mouse; details: test compound 10 μM, LPS 50 ng/ml, 16 hrs; negative = inhibition
Procedure: The mouse macrophage cell line RAW 264.7 was cultured in DMEM supplemented with foetal calf serum (FCS), 2 mM glutamine and 50 U/ml penicillin/streptomycin. Subconfluent cells were detached from the flask by gentle scraping and 24-well plates seeded at 5×10^5 cells per well and allowed to adhere for 1 hr. Cells were then treated either test compound at a concentration of 10 μM (in 0.025% DMSO) or vehicle alone, and incubated for 1 hr. LPS 50 ng/ml (LPS—Sigma-Aldrich) was then added. After incubation for 16 hrs, culture media was collected and stored at −80° C. for ecosanoid measurements using enzyme immunometric assays (PGE2 and TXB2—Cayman Chemical).

[15] = tested on: RK (rabbit kidney) cells; assay: Cytotoxicity (MTT proliferation assay) against rabbit kidney cells; format: cell-based
Procedure: as §3, §2

[16] = tested on: NCI-H23; assay: MTT proliferation assay, lung NCI-H23; format: cell-based; details: Homo sapiens; Lung NCI-H23, Table 2.1; read-out: cytoxicity (IC50)
Procedure: as §1, §2

- IC50 ([1]; Colorectal HT-29, Table 2.2, read-out: IC50): 15700 ± 2400 nM
- solubility [2]: 11.2 mg/mL (≈ 30.9 mM)
- activity relative to phenoxodiol (IC50 comparison) [4]: 2-10 fold
- IC50 [5]: 1200 ± 450 nM
- IC50 ([7]; Glioma HTB-138, Table 2.2, read-out: IC50): 1160 nM
- IC50 ([8]; Prostate PC3, Table 2.2, read-out: IC50): 1600 ± 800 nM
- IC50 ([9]; Melanoma MM200, Table 2.2, read-out: IC50): 780 ± 230 nM
- concentration at 1 h ([11]; female, BALB/c, mouse, faeces, po, 50 mg/kg, oral 50 mg/kg, Time 1 (head prints days), read-out: Faeces Free): 1060 ± 913 µM
- concentration at 4 h ([11]; female, BALB/c, mouse, faeces, po, 50 mg/kg, oral 50 mg/kg, Time 4 (head prints days), read-out: Faeces Free): 1790 ± 625 µM
- concentration at 24 h ([11]; female, BALB/c, mouse, faeces, po, 50 mg/kg, oral 50 mg/kg, Time 24 (head prints days), read-out: Faeces Free): 800 ± 670 µM
- half-life ([11]; female, BALB/c, mouse, serum, 50 mg/kg, oral, sera, read-out: half life): ~30 min
- concentration at 0.25 h ([11]; female, BALB/c, mouse, serum, po, 50 mg/kg, oral 50 mg/kg, Time 0.25 (head prints days), read-out: Serum Free): 27.3 ± 23 µM
- concentration at 0.5 h ([11]; female, BALB/c, mouse, serum, po, 50 mg/kg, oral 50 mg/kg, Time 0.5 (head prints days), read-out: Serum Free): 8.2 ± 6.5 µM
- concentration at 1 h ([11]; female, BALB/c, mouse, serum, po, 50 mg/kg, oral 50 mg/kg, Time 1 (head prints days), read-out: Serum Free): 2.4 ± 1.6 µM
- concentration at 4 h ([11]; female, BALB/c, mouse, serum, po, 50 mg/kg, oral 50 mg/kg, Time 4 (head prints days), read-out: Serum Free): 0.3 ± 0.02 µM
- concentration at 24 h ([11]; female, BALB/c, mouse, serum, po, 50 mg/kg, oral 50 mg/kg, Time 24 (head prints days), read-out: Serum Free): 0.05 ± 0.02 µM
- concentration at 0.25 h ([11]; female, BALB/c, mouse, serum, po, 50 mg/kg, oral, Time 0.25, Table 4, read-out: Free concentration, comparative oral pharmacokinetic data): 27.3 ± 23 µM
- concentration at 0.5 h ([11]; female, BALB/c, mouse, serum, po, 50 mg/kg, oral, Time 0.5, Table 4, read-out: Free concentration, comparative oral pharmacokinetic data): 8.2 ± 6.5 µM
- concentration at 1 h ([11]; female, BALB/c, mouse, serum, po, 50 mg/kg, oral, Time 1, Table 4, read-out: Free concentration, comparative oral pharmacokinetic data): 2.4 ± 1.6 µM
- concentration at 4 h ([11]; female, BALB/c, mouse, serum, po, 50 mg/kg, oral, Time 4, Table 4, read-out: Free concentration, comparative oral pharmacokinetic data): 0.33 ± 0.02 µM
- concentration at 24 h ([11]; female, BALB/c, mouse, serum, po, 50 mg/kg, oral, Time 24, Table 4, read-out: Free concentration, comparative oral pharmacokinetic data): 0.05 ± 0.02 µM
- concentration at 30 min ([11]; female, BALB/c, mouse, serum, po, 50 mg/kg, oral, after 30 min, read-out: free concentration in sera): 8.2 µM
- concentration at 1 hr ([11]; female, BALB/c, mouse, serum, po, 50 mg/kg, oral, after 1 hr, read-out: free concentration in sera): 2.4 µM
- concentration at 0.25 h ([11]; female, BALB/c, mouse, urine, po, 50 mg/kg, oral 50 mg/kg, Time 0.25 (head prints days), read-out: Urine Free): 17.1 ± 7.2 µM
- concentration at 0.5 h ([11]; female, BALB/c, mouse, urine, po, 50 mg/kg, oral 50 mg/kg, Time 0.5 (head prints days), read-out: Urine Free): 22.1 ± 1.5 µM
- concentration at 1 h ([11]; female, BALB/c, mouse, urine, po, 50 mg/kg, oral 50 mg/kg, Time 1 (head prints days), read-out: Urine Free): 26.3 ± 2.2 µM
- concentration at 4 h ([11]; female, BALB/c, mouse, urine, po, 50 mg/kg, oral 50 mg/kg, Time 4 (head prints days), read-out: Urine Free): 1.1 ± 0.1 µM
- concentration at 24 h ([11]; female, BALB/c, mouse, urine, po, 50 mg/kg, oral 50 mg/kg, Time 24 (head prints days), read-out: Urine Free): 0.1 ± 0.1 µM
- share of compound recovered from faeces present in free form ([11]; oral): ~100%
- Cmax of free compound in sera ([11]; oral, 15 minutes post administration): 27.3 µM
- free concentration relative to phenoxodiol ([11]; oral, after 15 and 30 min): 10-20 fold
- concentration relative to phenoxodiol ([11]; oral, after 1 hr): Approximately 2 fold
- share present as the free entity in urine ([11]; oral, at any time-point): ≤ 2%
- IC50 [12]: 1600 ± 1200 nM
- IC50 ([13]; Breast MDA-MB-468, Table 2.2, read-out: IC50): 1000 ± 600 nM
SMILES: COc1ccc(C2c3ccc(O)c(C)c3OCC2c2ccc(O)cc2)cc1 (stereo not shown) [Compound 1, 3-(4-hydroxyphenyl)-4-(4-methoxyphenyl)-8-methyl-3,4-dihydro-2H-chromen-7-ol]
- IC50 ([1]; Colorectal HT-29, Table 2.1, read-out: cytoxicity (IC50)): 17400 nM
- activity in words ([1]; colorectal cell line HT-29): moderately active
- IC50 [3]: 51700 ± 8000 nM
- IC50 ([6]; Neonatal Foreskin Fibroblasts (Human, NFF), read-out: IC50): ~2000 nM
- IC50 ([6]; non-transformed neonatal foreskin fibroblasts, read-out: IC50): 2000 nM
- IC50 ([6]; text says rabbit kidney cells, values are those of the NFF line of Table 1, read-out: degree of toxicity (IC50)): 2000 nM
- IC50 ([7]; Glioma HTB-138, Table 2.1, read-out: cytoxicity (IC50)): 1100 nM
- IC50 ([8]; Prostate PC3, Table 2.1, read-out: cytoxicity (IC50)): 1700 ± 500 nM
- IC50 ([9]; Melanoma MM200, Table 2.1, read-out: cytoxicity (IC50)): 1000 ± 10 nM
- IC50 ([10]; Ovarian CCP70, Table 2.1, read-out: cytoxicity (IC50)): 1700 nM
- IC50 ([10]; Ovarian CP70, Table 2.2, read-out: IC50): 1900 ± 400 nM
- IC50 ([13]; Breast MDA-MB-468, Table 2.1, read-out: cytoxicity (IC50)): 600 ± 10 nM
- Percentage change in PGE2 synthesis compared with vehicle [14]: −53.8%
- Percentage change in TXB2 synthesis compared with vehicle [14]: −15.9%
- IC50 ([15]; Oryctolagus cuniculus, rabbit kidney cells): > 60000 nM
- IC50 ([15]; Rabbit Kidney cells): > 60000 nM
- IC50 [16]: 1900 ± 100 nM
